The target in one assay is anthrax lethal factor (Bacillus anthracis, UniProt P15917). In kind it is biochemical.
In another assay the test system is Y. pestis. Briefly: microbe, parasite or virus in culture. In kind it is cell-based. Particulars: Yersinia pestis.
The subject of a further assay is B. brevis. The assay is described as follows: microbe, parasite or virus in culture. In kind it is cell-based. Particulars: Brevibacillus brevis.
The next assay has as its system E. feacalis. The assay is described as follows: organism not typed. The format is cell-based.
The next assay has as its system B. licheniformis. Briefly: microbe, parasite or virus in culture. Particulars: Bacillus licheniformis. In kind it is cell-based.
A further assay concerns Burkholderia mallei. The assay is described as follows: microbe, parasite or virus in culture. The format is cell-based.
For another assay, the system named is B. anthracis Ames. Briefly: microbe, parasite or virus in culture. Particulars: Bacillus anthracis. In kind it is cell-based.
Assay [1] relates to B. anthracis GFP sterne vegetative cells. Briefly: microbe, parasite or virus in culture. The format is cell-based. As to conditions: Bacillus anthracis, read-out: MIC B. anthracis vegetative cells.
The test system of assay [2] is Methicillin resistant S. aureus. Briefly: microbe, parasite or virus in culture. In kind it is cell-based. Particulars: Staphylococcus aureus.
For another assay, the system named is K. pneumoniae. Briefly: microbe, parasite or virus in culture. In kind it is cell-based. As to conditions: Klebsiella pneumoniae.
In assay [3] the test system is B. anthracis GFP sterne spores. Briefly: microbe, parasite or virus in culture. The format is cell-based. As to conditions: Bacillus anthracis.
The next assay has as its system P. aeruginosa PAO1. Briefly: microbe, parasite or virus in culture. In kind it is cell-based. Particulars: Pseudomonas aeruginosa.
The test system of the next assay is Sterne spores. In kind it is cell-based, B. anthracis.
The next assay concerns B. subtilis. The assay is described as follows: microbe, parasite or virus in culture. In kind it is cell-based. As to conditions: Bacillus subtilis.
The test system of a further assay is B. megaterium. The assay is described as follows: microbe, parasite or virus in culture. In kind it is cell-based. Particulars: Priestia megaterium.
The test system of assay [4] is Ames spores. The assay is described as follows: microbe, parasite or virus in culture. In kind it is cell-based, B. anthracis. As to conditions: Bacillus anthracis.
A further assay concerns B. pumilus. The assay is described as follows: microbe, parasite or virus in culture. As to conditions: Bacillus pumilus. In kind it is cell-based.
For the next assay, the system named is S. aureus. Briefly: microbe, parasite or virus in culture. Particulars: Staphylococcus aureus. In kind it is cell-based.
For the next assay, the system named is Sterne GFP spores. The format is cell-based, B. anthracis.
The subject of the next assay is E. coli. The assay is described as follows: microbe, parasite or virus in culture. The format is cell-based. Particulars: Escherichia coli.
Assay [5] relates to Burkholderia thailandensis. The assay is described as follows: microbe, parasite or virus in culture. In kind it is cell-based.
The next assay concerns B. cepacia. Briefly: microbe, parasite or virus in culture. In kind it is cell-based. As to conditions: Burkholderia cepacia.
The test system of assay [6] is Ames spores. Briefly: microbe, parasite or virus in culture. The format is cell-based, B. anthracis. Particulars: Bacillus anthracis. This is another data set of the same source.
For assay [7], the system named is Burkholderia pseudomallei. The assay is described as follows: microbe, parasite or virus in culture. In kind it is cell-based.
For assay [8], the target named is botulinum neurotoxin serotype A light chain (Clostridium botulinum, UniProt P0DPI0). The format is biochemical, Clostridium botulinium.
Chain of botulinum neurotoxin serotype A light chain (P0DPI0 2-448 limits assumed): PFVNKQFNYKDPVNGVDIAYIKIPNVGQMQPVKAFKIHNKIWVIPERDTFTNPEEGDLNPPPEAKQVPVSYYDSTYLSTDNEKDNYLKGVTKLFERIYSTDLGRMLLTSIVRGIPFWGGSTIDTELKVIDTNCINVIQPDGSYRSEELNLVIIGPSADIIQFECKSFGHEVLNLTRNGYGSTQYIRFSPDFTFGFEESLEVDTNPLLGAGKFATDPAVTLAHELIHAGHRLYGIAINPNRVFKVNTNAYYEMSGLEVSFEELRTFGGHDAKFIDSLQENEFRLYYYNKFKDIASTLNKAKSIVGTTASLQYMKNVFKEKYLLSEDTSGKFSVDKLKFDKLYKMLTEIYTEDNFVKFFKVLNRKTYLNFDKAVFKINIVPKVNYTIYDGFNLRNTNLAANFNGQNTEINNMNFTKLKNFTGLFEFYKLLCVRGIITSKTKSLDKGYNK
Assay [9] concerns B. vollum. Briefly: organism not typed. In kind it is cell-based.
The subject of assay [10] is B. vollum. Briefly: organism not typed. The format is cell-based. The source holds these as a separate data set.
Setting [11] is: read-out: MIC B. anthracis spores.

Values after ≈ are worked out from the molar mass of the structure shown. Like-named read-outs stand apart in the source and are kept apart here. A value given as a limit tells only on which side of the number the result lay.

Chain of anthrax lethal factor (P15917 34-809 limits assumed): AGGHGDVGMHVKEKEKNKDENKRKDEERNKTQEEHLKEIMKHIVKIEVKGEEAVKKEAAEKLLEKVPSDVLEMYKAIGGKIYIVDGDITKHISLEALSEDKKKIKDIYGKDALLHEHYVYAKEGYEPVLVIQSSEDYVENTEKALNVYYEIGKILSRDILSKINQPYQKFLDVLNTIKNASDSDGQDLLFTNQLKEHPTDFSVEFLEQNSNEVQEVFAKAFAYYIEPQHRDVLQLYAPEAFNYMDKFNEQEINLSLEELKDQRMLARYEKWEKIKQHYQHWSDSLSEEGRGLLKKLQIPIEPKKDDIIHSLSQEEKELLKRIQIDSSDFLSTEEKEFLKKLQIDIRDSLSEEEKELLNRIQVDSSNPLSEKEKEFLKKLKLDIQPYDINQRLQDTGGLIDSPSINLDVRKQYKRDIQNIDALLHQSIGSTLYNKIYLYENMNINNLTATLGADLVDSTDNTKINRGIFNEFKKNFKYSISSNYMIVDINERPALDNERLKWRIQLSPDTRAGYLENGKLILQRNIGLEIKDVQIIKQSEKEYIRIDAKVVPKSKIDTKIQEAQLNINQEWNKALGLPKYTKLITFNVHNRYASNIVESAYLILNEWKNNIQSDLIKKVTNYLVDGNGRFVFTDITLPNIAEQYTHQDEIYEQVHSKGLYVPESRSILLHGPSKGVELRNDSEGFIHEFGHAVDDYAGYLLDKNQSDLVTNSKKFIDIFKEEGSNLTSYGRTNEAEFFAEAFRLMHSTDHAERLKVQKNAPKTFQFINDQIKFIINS

Consider `c1cc2cc(-c3ccc(-c4cc5ccc(C6=NCCN6)cc5[nH]4)cc3)[nH]c2cc1C1=NCCN1` [NSC 317881, 6-(4,5-dihydro-1H-imidazol-2-yl)-2-[4-[6-(4,5-dihydro-1H-imidazol-2-yl)-1H-indol-2-yl]phenyl]-1H-indole], for which the “inhibition of the protease activity of anthrax lethal factor” value (“inhibition … of anthrax lethal factor” for short) at anthrax lethal factor is listed as “inhibit”. Besides, the MIC with Y. pestis is 20.7 µg/mL (≈ 46.5 µM); in the assay on B. brevis, 0.646 µg/mL (≈ 1.45 µM); in the assay with E. feacalis, 0.162 µg/mL (≈ 0.364 µM); with B. licheniformis, 0.646 µg/mL (≈ 1.45 µM); in the assay on Burkholderia mallei it was 10.3 µg/mL (≈ 23.3 µM); against B. anthracis Ames it was 0.32 µg/mL (≈ 0.72 µM). In addition, the MIC in assay [1] is 0.646 µg/mL (≈ 1.45 µM); in assay [2] it was 0.323 µg/mL (≈ 0.727 µM); against K. pneumoniae, 10.3 µg/mL (≈ 23.3 µM); in assay [3] (22 h, read-out: MIC (figure legend)), 0.084 µg/mL (≈ 0.189 µM); in [3] (setting [11]), 0.162 µg/mL (≈ 0.364 µM); in the assay with P. aeruginosa PAO1, 0.323 µg/mL (≈ 0.727 µM). Also, the MIC in the assay on B. subtilis was 0.162 µg/mL (≈ 0.364 µM); in the assay with B. megaterium, 0.323 µg/mL (≈ 0.727 µM); in the assay on Ames spores [4], 0.162 µg/mL (≈ 0.364 µM); in the assay on B. pumilus, 0.021 µg/mL (≈ 0.0472 µM); against S. aureus, 0.323 µg/mL (≈ 0.727 µM); in the assay on E. coli it was 0.646 µg/mL (≈ 1.45 µM). Besides, the MIC in [5] was 20.7 µg/mL (≈ 46.5 µM); in the assay with B. cepacia it was over 20.7 µg/mL; in assay [7], over 20.7 µg/mL. In the assay with Sterne spores, the “effect on spore germination” value is “does not have an effect on spore germination”. Further, the “time after contact with germination medium by which treated spores were killed by heat” value in the assay with Sterne spores was at most 15 min. Besides, the “reduction in cfu as compared to the DMSO control” value with Sterne GFP spores is listed as “considerable reduction”. The “treatment time after which no viable spores were detected” value in the assay with Sterne GFP spores is about 4 h. Besides, the MBC in the assay on Ames spores [6] is 0.162 µg/mL (≈ 0.364 µM).

Consider `N=C(N)c1ccc(Oc2ccc(-c3cc4ccc(C(=N)N)cc4[nH]3)cc2)cc1` [NSC 240898, 2-[4-(4-carbamimidoylphenoxy)phenyl]-1H-indole-6-carboximidamide], for which, at anthrax lethal factor, the “inhibition … of anthrax lethal factor” value is “inhibit”. Moreover, the “inhibition of botulinum neurotoxin serotype A light chain metalloprotease activity” value in assay [8] is “inhibit”. Also, the MIC in [1] and in assay [3] (setting [11]) was 4.42 µg/mL (≈ 12 µM) throughout.

For `c1cc2cc(-c3ccc4cc(-c5ccc6oc(C7=NCCN7)cc6c5)[nH]c4c3)[nH]c2cc1C1=NCCN1` [NSC 369718, 6-(4,5-dihydro-1H-imidazol-2-yl)-2-[2-[2-(4,5-dihydro-1H-imidazol-2-yl)benzofuran-5-yl]-1H-indol-6-yl]-1H-indole], the MIC with Y. pestis stood at 1.39 µg/mL (≈ 2.87 µM); in the assay on B. brevis, 0.174 µg/mL (≈ 0.359 µM); against E. feacalis, 0.696 µg/mL (≈ 1.44 µM); against B. licheniformis, 1.39 µg/mL (≈ 2.87 µM); against Burkholderia mallei, 11.1 µg/mL (≈ 23 µM); against B. anthracis Ames, 1.39 µg/mL (≈ 2.87 µM). Moreover, the MIC in assay [1] was determined as 0.696 µg/mL (≈ 1.44 µM); in assay [2], 2.79 µg/mL (≈ 5.75 µM); with K. pneumoniae it was 5.57 µg/mL (≈ 11.5 µM); in assay [3] (setting [11]) it was 0.348 µg/mL (≈ 0.718 µM); against P. aeruginosa PAO1 it was 1.39 µg/mL (≈ 2.87 µM); in the assay on B. subtilis it was 0.348 µg/mL (≈ 0.718 µM). Moreover, the MIC came out at 0.348 µg/mL (≈ 0.718 µM) against B. megaterium; 0.174 µg/mL (≈ 0.359 µM) in the assay with Ames spores [4]; 0.348 µg/mL (≈ 0.718 µM) in the assay on B. vollum [10]; 0.348 µg/mL (≈ 0.718 µM) with B. pumilus; 0.696 µg/mL (≈ 1.44 µM) against S. aureus; 1.39 µg/mL (≈ 2.87 µM) with E. coli. Further, the MIC in [5] was determined as 2.78 µg/mL (≈ 5.75 µM); in the assay with B. cepacia, 22.3 µg/mL (≈ 46 µM); in [7], 2.79 µg/mL (≈ 5.75 µM). Also, the MBC worked out at 0.348 µg/mL (≈ 0.718 µM) against B. vollum [9] and 0.174 µg/mL (≈ 0.359 µM) in the assay on Ames spores [6]. For the same compound, the “effect on spore germination” value in the assay with Sterne spores is listed as “results to those of NSC 317881 were obtained”.

Turning to `c1cc2cc(-c3ccc4cc(C5=NCCN5)[nH]c4c3)[nH]c2cc1C1=NCCN1` [NSC 330687, 2-(4,5-dihydro-1H-imidazol-2-yl)-6-[6-(4,5-dihydro-1H-imidazol-2-yl)-1H-indol-2-yl]-1H-indole], the MIC turned out to be 8.82 µg/mL (≈ 23.9 µM) with Y. pestis; 0.276 µg/mL (≈ 0.749 µM) against B. brevis; 2.21 µg/mL (≈ 5.98 µM) against E. feacalis; 2.21 µg/mL (≈ 5.99 µM) against B. licheniformis; 8.82 µg/mL (≈ 23.9 µM) in the assay with Burkholderia mallei; 1.1 µg/mL (≈ 2.99 µM) with B. anthracis Ames. In addition, the MIC in assay [1] was 1.1 µg/mL (≈ 2.99 µM); in assay [2] it was 2.2 µg/mL (≈ 5.97 µM); against K. pneumoniae, over 17.6 µg/mL; in assay [3] (setting [11]), 0.551 µg/mL (≈ 1.5 µM); against P. aeruginosa PAO1, 17.6 µg/mL (≈ 47.9 µM); against B. subtilis, 0.551 µg/mL (≈ 1.5 µM). In addition, the MIC against B. megaterium worked out at 0.551 µg/mL (≈ 1.5 µM); in the assay with Ames spores [4] it was 0.276 µg/mL (≈ 0.749 µM); in the assay with B. pumilus it was 0.138 µg/mL (≈ 0.375 µM); in the assay with S. aureus, 1.1 µg/mL (≈ 2.99 µM); against E. coli, 1.1 µg/mL (≈ 2.99 µM); in assay [5], 17.6 µg/mL (≈ 47.9 µM). The MIC is 4.41 µg/mL (≈ 12 µM) in the assay with B. cepacia and over 17.6 µg/mL in assay [7]. The “effect on spore germination” value in the assay with Sterne spores was “results to those of NSC 317881 were obtained”. The compound also showed an MBC with Ames spores [6] of 0.276 µg/mL (≈ 0.749 µM).

On to `NC(N)=NN=Cc1ccc2cc(-c3ccc(/C=N/N=C(N)N)cc3)sc2c1` [NSC 341909, 2-[[2-[4-[(E)-(diaminomethylidenehydrazinylidene)methyl]-phenyl]benzothiophen-6-yl]methylideneamino]guanidine], for which the “inhibition … of anthrax lethal factor” value on anthrax lethal factor is “inhibit”. Further, the “inhibition of botulinum neurotoxin serotype A light chain metalloprotease activity” value in [8] is listed as “inhibit”. The MIC in assay [1] is 18 µg/mL (≈ 47.7 µM); in assay [3] (setting [11]), 4.51 µg/mL (≈ 11.9 µM).

In the case of `N=C(N)c1ccc2oc(/C=C/C=C/C=C/c3cc4cc(C(=N)N)ccc4o3)cc2c1` [NSC 308574, 2-[(1E,3E,5E)-6-(5-carbamimidoylbenzofuran-2-yl)hexa-1,3,5-trienyl]benzofuran-5-carboximidamide], at anthrax lethal factor, the “inhibition … of anthrax lethal factor” value is given as “inhibit”. Besides, the “inhibition of botulinum neurotoxin serotype A light chain metalloprotease activity” value in assay [8] was “inhibit”. In addition, the MIC was found to be 9.38 µg/mL (≈ 23.7 µM) in assay [1] and 2.35 µg/mL (≈ 5.91 µM) in [3] (setting [11]).

With `C(=C\c1cc2ccc(C3=NCCN3)cc2[nH]1)/c1cc2ccc(C3=NCCN3)cc2[nH]1` [NSC 317880, 6-(4,5-dihydro-1H-imidazol-2-yl)-2-[(E)-2-[6-(4,5-dihydro-1H-imidazol-2-yl)-1H-indol-2-yl]ethenyl]-1H-indole], the “inhibition … of anthrax lethal factor” value at anthrax lethal factor was “inhibit”. For the same compound, the MIC turned out to be 18.7 µg/mL (≈ 47.4 µM) against Y. pestis; 0.584 µg/mL (≈ 1.48 µM) with B. brevis; 0.584 µg/mL (≈ 1.48 µM) in the assay with E. feacalis; 2.33 µg/mL (≈ 5.92 µM) against B. licheniformis; 9.34 µg/mL (≈ 23.7 µM) against Burkholderia mallei; 0.584 µg/mL (≈ 1.48 µM) against B. anthracis Ames. The MIC is 1.17 µg/mL (≈ 2.96 µM) in [1]; 2.33 µg/mL (≈ 5.92 µM) in assay [2]; over 18.7 µg/mL with K. pneumoniae; 0.292 µg/mL (≈ 0.74 µM) in [3] (setting [11]); 1.17 µg/mL (≈ 2.96 µM) in the assay on P. aeruginosa PAO1; 0.292 µg/mL (≈ 0.74 µM) in the assay with B. subtilis. The MIC was 0.584 µg/mL (≈ 1.48 µM) in the assay on B. megaterium; 0.146 µg/mL (≈ 0.37 µM) against Ames spores [4]; 0.146 µg/mL (≈ 0.37 µM) in the assay with B. pumilus; 1.17 µg/mL (≈ 2.96 µM) against S. aureus; 0.584 µg/mL (≈ 1.48 µM) in the assay on E. coli; 18.7 µg/mL (≈ 47.4 µM) in assay [5]. Also, the MIC (against B. cepacia; in assay [7]) was 18.7 µg/mL (≈ 47.4 µM) in each case. Further, the “effect on spore germination” value in the assay on Sterne spores was “results to those of NSC 317881 were obtained”. The compound further returned an MBC with Ames spores [6] of 0.146 µg/mL (≈ 0.37 µM).

Source of the values: US8691859B2 (priority 2005, dated 2014).
